For eight molecules, TGI results are on record in PubChem BioAssay (NCI).

Among the test systems are TK-10 renal; SK-OV-3 ovarian; MDA-MB-435; NCI-H23 lung; NCI/ADR-RES ovarian; RPMI-8226 leukemia; OVCAR-4 ovarian; SF-539 CNS; SK-MEL-2 melanoma; CAKI-1 renal; MALME-3M melanoma; BT-549 breast; MDA-N; SW-620 colon; RXF 393 renal; OVCAR-3 ovarian.
Test in all cases: growth of human tumour cells (NCI), 48 h

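Briefly, cells in 96-well plates were exposed to five compound concentrations for 48 h, and endpoints were estimated by linear interpolation. TGI marks complete inhibition of growth.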

Consider `CC(=O)OCC1OC(n2c(N)c(C#N)c(-c3ccc(C)cc3)c(C#N)c2=S)C(OC(C)=O)C(OC(C)=O)C1OC(C)=O` (stereo not drawn), for which the TGI with TK-10 renal was 37.9 µM; in the assay on SK-OV-3 ovarian, 66.5 µM; in the assay with MDA-MB-435, 79.3 µM; with NCI-H23 lung, 51.9 µM; with NCI/ADR-RES ovarian, 91.9 µM; with RPMI-8226 leukemia, 80 µM. In addition, the TGI was more than 100 µM in the assay with OVCAR-4 ovarian; 19.2 µM with SF-539 CNS; 28.5 µM with SK-MEL-2 melanoma; more than 100 µM in the assay with CAKI-1 renal; 33 µM in the assay on MALME-3M melanoma; more than 100 µM in the assay on BT-549 breast. The TGI in the assay with MDA-N was 30.9 µM; with SW-620 colon, more than 100 µM; in the assay with RXF 393 renal, 32.7 µM; with OVCAR-3 ovarian, more than 100 µM.

Consider `CC(C)NC(=O)OCc1c(COC(=O)NC(C)C)n(C)c2c1ccc1ccccc12`, for which the TGI amounted to 3.04 µM in the assay with TK-10 renal; 22.2 µM in the assay on SK-OV-3 ovarian; 4.9 µM in the assay on MDA-MB-435; 3.17 µM in the assay with NCI-H23 lung; 7.39 µM with NCI/ADR-RES ovarian; 3.92 µM in the assay with RPMI-8226 leukemia. Further, the TGI in the assay on OVCAR-4 ovarian came to 9.19 µM; in the assay with SF-539 CNS, 3.5 µM; in the assay with SK-MEL-2 melanoma, 4.09 µM; in the assay with CAKI-1 renal, 1.94 µM; with MALME-3M melanoma it was 2.24 µM; with BT-549 breast it was 1.58 µM. Moreover, the TGI in the assay with MDA-N is 4.22 µM; in the assay on SW-620 colon it was 2.4 µM; with RXF 393 renal, 2.65 µM; with OVCAR-3 ovarian it was 12.4 µM.

Take `COc1cc2c(c3c1c(=O)c1ccccc1n3C)C=CC1(CCCCC1)O2`: the TGI with TK-10 renal was more than 10 µM; with SK-OV-3 ovarian it was more than 10 µM; with MDA-MB-435, 6.42 µM; in the assay on NCI-H23 lung, more than 10 µM; with NCI/ADR-RES ovarian, more than 10 µM; with RPMI-8226 leukemia it was more than 5.04 µM. Further, the TGI was more than 10 µM in the assay with OVCAR-4 ovarian; more than 7.22 µM in the assay on SF-539 CNS; 9.69 µM with SK-MEL-2 melanoma; more than 2.29 µM in the assay on CAKI-1 renal; more than 10 µM in the assay with MALME-3M melanoma; more than 8.59 µM in the assay with BT-549 breast. In addition, the TGI in the assay on MDA-N was 8.08 µM; in the assay with SW-620 colon, more than 10 µM; in the assay with RXF 393 renal, 2.98 µM; in the assay on OVCAR-3 ovarian it was more than 10 µM.

For the molecule `CN(C)c1ccc(/C=C(\NC(=O)c2ccccc2)C(=O)NC(CCC(=O)O)C(=O)O)cc1` (stereo not drawn), the TGI with TK-10 renal, in the assay on SK-OV-3 ovarian, with MDA-MB-435, in the assay on NCI-H23 lung, in the assay on NCI/ADR-RES ovarian and with RPMI-8226 leukemia was more than 100 µM in each case. For the same molecule, the TGI with OVCAR-4 ovarian, in the assay on SF-539 CNS, with SK-MEL-2 melanoma, in the assay on CAKI-1 renal, with MALME-3M melanoma and in the assay with BT-549 breast was more than 100 µM each time. The TGI with MDA-N, with SW-620 colon, with RXF 393 renal and in the assay with OVCAR-3 ovarian was more than 100 µM throughout.

On to `CCOC(=O)c1c(-c2ccc(OC)cc2)c(C#N)c(=S)n(C2OC(CO)C(O)C(O)C2O)c1-c1ccccc1` (stereo not drawn), for which the TGI in the assay on TK-10 renal was more than 100 µM; in the assay on SK-OV-3 ovarian it was more than 100 µM; in the assay on MDA-MB-435, 95.9 µM; with NCI-H23 lung, more than 100 µM; in the assay on NCI/ADR-RES ovarian, more than 100 µM; with RPMI-8226 leukemia it was more than 100 µM. The TGI with OVCAR-4 ovarian, with SF-539 CNS, with SK-MEL-2 melanoma, in the assay with CAKI-1 renal, with MALME-3M melanoma and in the assay with BT-549 breast was more than 100 µM each time. Also, the TGI in the assay with MDA-N was more than 100 µM; in the assay with SW-620 colon, more than 100 µM; in the assay on RXF 393 renal, 75.7 µM; with OVCAR-3 ovarian, 73 µM.

Turning to `O=C(c1cccnc1)N1N=C(c2ccc(Cl)cc2)CC1(O)c1cc(F)c(Cl)cc1Cl` (stereo not drawn), the TGI in the assay with TK-10 renal was more than 100 µM; with SK-OV-3 ovarian it was more than 100 µM; with MDA-MB-435, more than 100 µM; in the assay on NCI-H23 lung, more than 100 µM; in the assay on NCI/ADR-RES ovarian, more than 100 µM; with RPMI-8226 leukemia it was 47.6 µM. The TGI is more than 100 µM in the assay on OVCAR-4 ovarian; 28.1 µM in the assay on SF-539 CNS; 75.2 µM with SK-MEL-2 melanoma; more than 100 µM with CAKI-1 renal; more than 100 µM in the assay on MALME-3M melanoma; 69.1 µM in the assay on BT-549 breast. For the same molecule, the TGI with MDA-N was more than 100 µM; in the assay on SW-620 colon, more than 100 µM; in the assay on RXF 393 renal, 26.7 µM; in the assay with OVCAR-3 ovarian, 26.9 µM.

As for `O=C(OCC1OC(c2nn[nH]n2)C(OC(=O)c2ccccc2)C1OC(=O)c1ccccc1)c1ccccc1` (stereo not drawn), the TGI in the assay with TK-10 renal, in the assay on SK-OV-3 ovarian, in the assay on MDA-MB-435, in the assay with NCI-H23 lung, in the assay on NCI/ADR-RES ovarian and in the assay with RPMI-8226 leukemia was more than 100 µM throughout. Besides, the TGI with OVCAR-4 ovarian, in the assay with SF-539 CNS, in the assay with SK-MEL-2 melanoma, with CAKI-1 renal, with MALME-3M melanoma and in the assay with BT-549 breast was more than 100 µM in each case. Moreover, the TGI in the assay with MDA-N, in the assay on SW-620 colon, with RXF 393 renal and in the assay on OVCAR-3 ovarian was more than 100 µM throughout.

Consider `NCCCN1CCN(CC(=O)O)CCN(CCCN)CCN(CC(=O)O)CC1`, for which the TGI with TK-10 renal, with SK-OV-3 ovarian, in the assay on MDA-MB-435, with NCI-H23 lung, in the assay with NCI/ADR-RES ovarian and in the assay with RPMI-8226 leukemia was more than 100 µM in each case. Also, the TGI with OVCAR-4 ovarian is more than 100 µM; with SF-539 CNS it was more than 100 µM; in the assay on SK-MEL-2 melanoma it was more than 76.1 µM; in the assay on CAKI-1 renal it was more than 100 µM; with MALME-3M melanoma it was more than 100 µM; in the assay on BT-549 breast, more than 100 µM. For the same molecule, the TGI in the assay on MDA-N, in the assay with SW-620 colon, in the assay on RXF 393 renal and in the assay with OVCAR-3 ovarian was more than 100 µM in each case.
